Data taken from patent publication US20240306642A1, “Herbicidal Compositions” (SYNGENTA CROP PROTECTION AG, priority 2021, published 2024).

Tests used:
Assay type in all cases: in vivo
[1] = test system: Lolium multiflorum (LOLMU); assay: Post-emergence efficacy, Lolium multiflorum; details: 15DAA
From the text: (§1) When active ingredients are combined, the activity to be expected (E) for any given active ingredient combination obeys the so-called Colby Formula and can be calculated as follows (Colby, S. R., Calculating synergistic and antagonistic responses of herbicide combination, Weeds, Vol. 15, pages 20-22; 1967): • ppm =milligrams of active ingredient (a.i.) per litre • X=% action by first active ingredient using p ppm of the active ingredient • Y=% action by second active ingredient using q ppm of the active ingredient.
(§2) According to Colby, the expected action of active ingredients A+B using p+q ppm of active ingredient is represented by the following formula: […]
(§3) If the action actually observed (O) is greater than the expected action E then the action of the combination is super-additive, i.e. there is a synergistic effect. In mathematical terms, synergism corresponds to a positive value for the difference of (O-E). In the case of purely complementary addition of activities (expected activity), said difference (O-E) is zero. A negative value of said difference (O-E) signals a loss of activity compared to the expected activity.
(§4) The efficacy of various compositions of the present invention were tested against plants including the following species: Echinochloa crus-gali (ECHCG), Lolium multiflorum(LOLMU), Setaria faberi (SETFA) and Digitaria insularis (TRCIN). The compositions are applied post-emergence, and the tests evaluated at certain days-after-application (DAA) as indicated. The tests were evaluated (100=total damage to plant; 0=no damage to plant), and the results are shown below in Tables B1 to B4.

[2] = test system: Echinochloa crus-gali (ECHCG); assay: Post-emergence efficacy, Echinochloa crus-gali; details: 16DAA
From the text: as §1, §2, §3, §4

[3] = test system: Digitaria insularis (TRCIN); assay: Post-emergence efficacy, Digitaria insularis; details: 13DAA
From the text: as §1, §2, §3, §4

Setaria faberi (SETFA) = assay: Post-emergence efficacy, Setaria faberi; details: 15DAA, rate 3 g/ha, 100=total damage to plant, 0=no damage
From the text: as §1, §2
If the action actually observed (O) is greater than the expected action E then the action of the combination is super-additive, i.e. there is a synergistic effect. […]
as §4

[4] = rate 1.88 g/ha, 100=total damage, 0=no damage

## CC#Cc1ccc(C2=C(OC(=O)OC)C3CCC(C3)C2=O)c(OC)c1 (stereo not shown) [Ic]
[1]; rate 6.25 g/ha, 100=total damage, 0=no damage
  Observed: 44
[1]; rate 12.5 g/ha
  Observed: 59
[2]; rate 3.125 g/ha, 100=total damage, 0=no damage
  Observed: 30
[2]; rate 6.25 g/ha
  Observed: 88
[3]; [4]
  Observed: 48

## CCSC(C)CC1CC(=O)C(/C(CC)=N/OC/C=C/Cl)=C(O)C1 (stereo not shown) [Formula B1, clethodim]
Setaria faberi (SETFA)
  Observed: 25

## CCc1cc(C)cc(CC)c1-c1c(OC(=O)C(C)(C)C)n2n(c1=O)CCOCC2 [Formula B6, pinoxaden]
[3]; rate 0.94 g/ha
  Observed: 0
[3]; [4]
  Observed: 20

## COC(=O)[C@@H](C)Oc1ccc(Oc2ncc(C(F)(F)F)cc2Cl)cc1 [Formula B5a, haloxyfop-P-methyl]
[2]; rate 8 g/ha
  Observed: 13

## CCCCOC(=O)[C@@H](C)Oc1ccc(Oc2ccc(C(F)(F)F)cn2)cc1 [Formula B4a, fluazifop-P-butyl]
[1]; rate 8 g/ha
  Observed: 68
